In the NIST ThermoML archive (doi:10.1021/je201009c):

Experiment: xn = mol fraction of the nth substance listed
Settings: for surface tension liquid-gas: Capillary rise; for viscosity / mass density: 100.8 kPa, Liquid; for viscosity: Falling or rolling sphere viscometry; for mass density: Vibrating tube method

CC(=O)OCc1ccccc1 [benzyl ethanoate] + CCO
Settings	mass density [kg/m3]	surface tension liquid-gas [mN/m]	viscosity [mPa·s]
293.15 K, x2 = 0	1055.81	37.3	2.324
293.15 K, x2 = 0.0502	1050.61	36.3	2.18
293.15 K, x2 = 0.1	1044.89	35.4	2.063
293.15 K, x2 = 0.1498	1038.77	34.4	1.962
293.15 K, x2 = 0.1998	1032.15	33.4	1.879
293.15 K, x2 = 0.2499	1025.14	32.5	1.808
293.15 K, x2 = 0.2998	1017.51	31.6	1.736
293.15 K, x2 = 0.35	1009.27	30.8	1.672
293.15 K, x2 = 0.4	1000.55	30	1.613
293.15 K, x2 = 0.4501	991.15	29.3	1.551
293.15 K, x2 = 0.5	980.94	28.6	1.49
293.15 K, x2 = 0.5499	969.73	27.9	1.439
293.15 K, x2 = 0.6	957.31	27.2	1.392
293.15 K, x2 = 0.65	943.77	26.7	1.347
293.15 K, x2 = 0.7	928.69	26.2	1.305
293.15 K, x2 = 0.7499	912.06	25.8	1.267
293.15 K, x2 = 0.7999	893.44	25.2	1.232
293.15 K, x2 = 0.85	872.42	24.5	1.202
293.15 K, x2 = 0.9	848.54	23.8	1.188
293.15 K, x2 = 0.95	821.38	23.1	1.178
303.15 K, x2 = 0	1046.74	35.6	1.836
303.15 K, x2 = 0.0502	1041.18	34.8	1.75
303.15 K, x2 = 0.1	1035.33	34	1.663
303.15 K, x2 = 0.1498	1029.09	33.2	1.595
303.15 K, x2 = 0.1998	1022.42	32.4	1.534
303.15 K, x2 = 0.2499	1015.3	31.6	1.477
303.15 K, x2 = 0.2998	1007.78	30.8	1.42
303.15 K, x2 = 0.35	999.68	30	1.375
303.15 K, x2 = 0.4	990.86	29.2	1.327
303.15 K, x2 = 0.4501	981.38	28.5	1.281
303.15 K, x2 = 0.5	971.11	27.8	1.233
303.15 K, x2 = 0.5499	959.94	27.1	1.194
303.15 K, x2 = 0.6	947.61	26.4	1.151
303.15 K, x2 = 0.65	933.97	25.8	1.115
303.15 K, x2 = 0.7	919.03	25.2	1.077
303.15 K, x2 = 0.7499	902.5	24.8	1.038
303.15 K, x2 = 0.7999	883.9	24.2	1.009
303.15 K, x2 = 0.85	863.07	23.6	0.989
303.15 K, x2 = 0.9	839.36	22.9	0.982
303.15 K, x2 = 0.95	812.21	22.2	0.975
313.15 K, x2 = 0	1037.42	34.3	1.474
313.15 K, x2 = 0.0502	1031.85	33.6	1.413
313.15 K, x2 = 0.1	1025.96	32.8	1.362
313.15 K, x2 = 0.1498	1019.7	32	1.308
313.15 K, x2 = 0.1998	1012.98	31.3	1.265
313.15 K, x2 = 0.2499	1005.82	30.5	1.226
313.15 K, x2 = 0.2998	998.2	29.8	1.181
313.15 K, x2 = 0.35	989.97	29.1	1.143
313.15 K, x2 = 0.4	981.2	28.4	1.101
313.15 K, x2 = 0.4501	971.7	27.7	1.067
313.15 K, x2 = 0.5	961.42	27	1.029
313.15 K, x2 = 0.5499	950.19	26.4	0.999
313.15 K, x2 = 0.6	937.83	25.8	0.964
313.15 K, x2 = 0.65	924.36	25.2	0.93
313.15 K, x2 = 0.7	909.51	24.6	0.891
313.15 K, x2 = 0.7499	893.04	24	0.867
313.15 K, x2 = 0.7999	874.6	23.4	0.841
313.15 K, x2 = 0.85	853.75	22.8	0.823
313.15 K, x2 = 0.9	830.17	22.1	0.812
313.15 K, x2 = 0.95	803.27	21.4	0.808
323.15 K, x2 = 0	1027.51	33.2	1.256
323.15 K, x2 = 0.0502	1021.88	32.5	1.22
323.15 K, x2 = 0.1	1015.97	31.8	1.187
323.15 K, x2 = 0.1498	1009.69	31.1	1.154
323.15 K, x2 = 0.1998	1002.94	30.4	1.12
323.15 K, x2 = 0.2499	995.85	29.6	1.086
323.15 K, x2 = 0.2998	988.26	28.9	1.05
323.15 K, x2 = 0.35	980.03	28.2	1.015
323.15 K, x2 = 0.4	971.24	27.5	0.979
323.15 K, x2 = 0.4501	961.72	26.7	0.943
323.15 K, x2 = 0.5	951.49	26	0.911
323.15 K, x2 = 0.5499	940.31	25.3	0.882
323.15 K, x2 = 0.6	927.98	24.7	0.853
323.15 K, x2 = 0.65	914.58	24.1	0.825
323.15 K, x2 = 0.7	899.72	23.5	0.795
323.15 K, x2 = 0.7499	883.26	22.9	0.77
323.15 K, x2 = 0.7999	864.86	22.3	0.743
323.15 K, x2 = 0.85	844.15	21.7	0.723
323.15 K, x2 = 0.9	820.71	21	0.704
323.15 K, x2 = 0.95	794.02	20.3	0.692
